Results from patent publication US20260035360A1, “INHIBITORS OF MYC AND USES THEREOF” (Northwestern University, priority 2022, published 2026).
Read-outs that look alike come from different tables or passages of the source.

Columns and labels:
Assay type in all cases: cell-based
[1] = system: PC3 cells; assay: PC3 cell viability, CellTitreGlo Assay, 72 hrs; conditions: Homo sapiens, PC-3
Description: (§1) Table 2. Biological data of selected compounds. For IC50 determination. PC3 and PC12 cells were treated with increasing concentrations of the indicated compounds for 72 hrs and cell viability assessed using CellTitreGlo Assay (Promega). For MYC and ATF4 protein level determination. PC3 cells were treated with the indicated compounds for 24 hr sand cell lysates processed for western blot with MYC and ATF4 antibodies using Actin as a control. Quantification analyses were performed by Biorad ChemiDoc Imager and Bio-Rad Image Lab software.

[2] = target: T1, MYC (Homo sapiens, UniProt P01106); assay: MYC protein level in PC3 cells by western blot, 24 hr; conditions: Actin control; for remaining activity at 10 µM: read-out: Relative MYC protein at 10 μM (%, PC3 24 h)
T1 construct: endogenous in cells; host or cells: PC3 cells
Description: as §1

[3] = system: ATF4; assay: ATF4 protein level in PC3 cells by western blot, 24 hr; conditions: Actin control; for fold induction at 10 µM: Homo sapiens, PC-3, PC3, 24 h, read-out: Relative ATF4 protein at 10 μM (fold change, PC3 24 h)
Description: as §1

T1 sequence (P01106 whole entry): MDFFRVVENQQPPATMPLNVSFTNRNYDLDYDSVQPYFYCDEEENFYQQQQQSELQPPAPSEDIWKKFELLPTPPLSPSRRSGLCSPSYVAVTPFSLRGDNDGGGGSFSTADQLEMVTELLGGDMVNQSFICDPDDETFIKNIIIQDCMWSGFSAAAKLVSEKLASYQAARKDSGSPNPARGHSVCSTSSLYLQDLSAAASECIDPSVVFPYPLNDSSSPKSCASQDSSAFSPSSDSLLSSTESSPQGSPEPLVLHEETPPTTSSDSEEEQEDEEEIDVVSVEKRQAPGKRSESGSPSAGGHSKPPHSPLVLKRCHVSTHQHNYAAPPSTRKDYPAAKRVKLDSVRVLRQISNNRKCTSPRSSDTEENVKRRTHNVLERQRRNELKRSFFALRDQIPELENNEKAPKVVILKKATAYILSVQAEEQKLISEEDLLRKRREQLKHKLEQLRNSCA

IC50 [1]	remaining activity at 10 µM ([2]; PC-3, 24 h, PC3, 24 h)	Relative MYC protein at 10 μM (%, PC3 24 h) [2]	Structure (SMILES)	fold induction at 10 µM [3]	remaining activity at 10 µM ([2]; PC-3, PC3, 24 h)	Relative ATF4 protein at 10 μM (fold change, PC3 24 h) [3]
6.2 µM	50.8%	–	CNc1ccc(-c2cc(C(F)(F)F)nn2C)c(O)c1-c1ccc(Cl)c(C(F)(F)F)c1 [NUCC-0226527]	1.2	–	–
–	97.6%	–	Cc1ncsc1-c1ccc(CNC(=O)[C@@H]2C[C@@H](O)CN2C(=O)[C@@H](NC(=O)C2(F)CC2)C(C)(C)C)c(OCCOCCOc2ccc(COc3ccc(-c4cc(C(F)(F)F)nn4C)c(O)c3-c3ccc(Cl)c(C(F)(F)F)c3)cc2)c1 [NUCC-0226277]	1.6	–	–
–	52.9%	–	COCCOCCCN(C(=O)c1ccc(C(F)(F)F)c(Cl)c1)c1ccc(-c2cc(C(F)(F)F)nn2C)c(O)c1 [NUCC-0226268]	5.4	–	–
3.59 µM	43.7%	–	Cn1nc(C(F)(F)F)cc1-c1ccc(CCc2ccc(Cl)cc2)c(-c2ccc(Cl)c(C(F)(F)F)c2)c1O [NUCC-0226574]	12	–	–
–	52%	–	Cn1nc(C(F)(F)F)cc1-c1ccc(O)c(-c2ccc(Cl)c(C(F)(F)F)c2)c1O [NUCC-0226259]	3.3	–	–
–	79.4%	–	Cn1nc(C(F)(F)F)cc1-c1ccc(OCc2ccc(OCCOCCNC(=O)COc3cccc4c3C(=O)N(C3CCC(=O)NC3=O)C4=O)cc2)c(-c2ccc(Cl)c(C(F)(F)F)c2)c1O (centres unmarked) [NUCC-0226302]	2	–	–
22.3 µM	102%	–	Cc1ncsc1-c1ccc(CNC(=O)[C@@H]2C[C@@H](O)CN2C(=O)[C@@H](NC(=O)CCCCCCCCCCNC(=O)CCOCCCN(C(=O)c2ccc(Cl)c(C(F)(F)F)c2)c2ccc(-c3cc(C(F)(F)F)nn3C)c(O)c2)C(C)(C)C)cc1 [NUCC-0226227]	10.2	–	–
–	56.4%	–	CC(=O)Oc1c(-c2cc(C(F)(F)F)nn2C)ccc(OCc2ccccc2)c1-c1ccc(Cl)c(C(F)(F)F)c1 [NUCC-0226258]	5.8	–	–
–	129%	–	Cn1nc(C(F)(F)F)cc1-c1ccc(OCc2ccc(Cl)cc2)c(-c2ccc(F)cc2)c1O [NUCC-0226503]	3	–	–
7.3 µM	32.5%	–	Cn1nc(C(F)(F)F)cc1-c1ccc(OCc2ccc(Cl)cc2)c(-c2ccc(F)c(F)c2)c1O [NUCC-0226504]	5.2	–	–
–	45.2%	–	CC(C)Cc1ccc(CN(C(=O)c2ccc(Cl)c(C(F)(F)F)c2)c2ccc(-c3cc(C(F)(F)F)nn3C)c(O)c2)cc1 [NUCC-0226280]	10.3	–	–
–	170%	–	Cn1nc(C(F)(F)F)cc1-c1ccc(OCCCOCCC(=O)NCCOCCOCCNc2cccc3c2C(=O)N(C2CCC(=O)NC2=O)C3=O)c(-c2ccc(Cl)c(C(F)(F)F)c2)c1O (centres unmarked) [NUCC-0226304]	4.6	–	–
–	90.3%	–	Cn1nncc1-c1ccc(OCc2ccc(Cl)cc2)c(-c2ccc(Cl)c(C(F)(F)F)c2)c1O [NUCC-0226659]	1.5	–	–
4.3 µM	20%	–	C[C@H](Oc1ccc(-c2cc(C(F)(F)F)nn2C)c(O)c1-c1ccc(Cl)c(C(F)(F)F)c1)c1ccccc1 [NUCC-0226434]	9.4	–	–
4.6 µM	46.4%	–	COCCCN(C(=O)c1ccc(C(F)(F)F)c(Cl)c1)c1ccc(-c2cc(C(F)(F)F)nn2C)c(O)c1 [NUCC-0226267]	8	–	–
5.3 µM	25.4%	–	Cn1nc(C(F)(F)F)cc1-c1ccc(OCc2ccc(Cl)cc2)c(-c2ccc(Cl)c(Cl)c2)c1O [NUCC-0226496]	10.3	–	–
12.7 µM	67.5%	–	Cn1nc(C(F)(F)F)cc1-c1ccc(N)c(-c2ccc(Cl)c(C(F)(F)F)c2)c1O [NUCC-0226520]	1.1	–	–
5.3 µM	52.3%	–	CC(C)Cc1ccc(C(C)Oc2ccc(-c3cc(C(F)(F)F)cn3C)c(O)c2-c2ccc(Cl)c(C(F)(F)F)c2)cc1 (centres unmarked) [NUCC-0226438]	3.7	–	–
3.88 µM	43.7%	–	Cn1nc(C(F)(F)F)cc1-c1ccc(Cc2ccc(Cl)cc2)c(-c2ccc(Cl)c(C(F)(F)F)c2)c1O [NUCC-0226566]	10.5	–	–
5.4 µM	47.4%	–	Cc1ccc([C@H](C)Oc2ccc(-c3cc(C(F)(F)F)nn3C)c(O)c2-c2ccc(Cl)c(C(F)(F)F)c2)cc1 [NUCC-0226435]	4.7	–	–

IC50 [1]	remaining activity at 10 µM ([2]; PC-3, 24 h, PC3, 24 h)	Relative MYC protein at 10 μM (%, PC3 24 h) [2]	Structure (SMILES)	fold induction at 10 µM [3]	remaining activity at 10 µM ([2]; PC-3, PC3, 24 h)	Relative ATF4 protein at 10 μM (fold change, PC3 24 h) [3]
15.6 µM	56.4%	–	Cn1nc(C(F)(F)F)cc1-c1ccc(N(CCCOCCC(=O)NCCCCCCOc2cccc3c2C(=O)N(C2CCC(=O)NC2=O)C3=O)C(=O)c2ccc(Cl)c(C(F)(F)F)c2)cc1O (centres unmarked) [NUCC-0226229]	16.4	–	–
3.4 µM	30.3%	–	Cc1ccc([C@@H](C)Oc2ccc(-c3cc(C(F)(F)F)nn3C)c(O)c2-c2ccc(Cl)c(C(F)(F)F)c2)cc1 [NUCC-0226436]	11.8	–	–
4.6 µM	59.4%	–	COc1ccc(-c2c(Cl)c(C(F)(F)F)nn2C)c(O)c1-c1ccc(Cl)c(C(F)(F)F)c1 [NUCC-0226501]	9.3	–	–
7.51 µM	56.6%	–	CC(C)n1nc(C(F)(F)F)cc1-c1ccc(OCc2ccc(Cl)cc2)c(-c2ccc(Cl)c(C(F)(F)F)c2)c1O [NUCC-0226657]	7.7	–	–
–	91.8%	–	Cc1ncsc1-c1ccc(CNC(=O)[C@@H]2C[C@@H](O)CC2C(=O)[C@@H](NCCOCCOCCOCCCCCOc2ccc(-c3cc(C(F)(F)F)nn3C)c(O)c2-c2ccc(Cl)c(C(F)(F)F)c2)C(C)(C)C)cc1 (some centres unmarked) [NUCC-0226266]	1.7	–	–
10.9 µM	24%	–	Cc1ncsc1-c1ccc(CNC(=O)[C@@H]2C[C@@H](O)CN2C(=O)[C@@H](NCCOCCNC(=O)CCOCCCOc2ccc(-c3cc(C(F)(F)F)nn3C)c(O)c2-c2ccc(Cl)c(C(F)(F)F)c2)C(C)(C)C)cc1 [NUCC-0226303]	1.6	–	–
–	93.1%	–	O=c1oc2c(-c3ccc(Cl)c(C(F)(F)F)c3)c(O)ccc2c2cc(C(F)(F)F)nn12 [NUCC-0226261]	4.4	–	–
–	–	–	Cn1nc(C(F)(F)F)cc1-c1ccc(OCc2ccccc2)c(-c2ccc(Cl)c(C(F)(F)F)c2)c1O [NUCC-0226260]	4.6	41.5%	–
10.1 µM	65.1%	–	CN1C(=O)CCC(N2C(=O)c3cccc(NCCOCCOCCNC(=O)CCOCCCN(C(=O)c4ccc(Cl)c(C(F)(F)F)c4)c4ccc(-c5cc(C(F)(F)F)nn5C)c(O)c4)c3C2=O)C1=O (centres unmarked) [NUCC-0226292]	1.1	–	–
–	105%	–	Cn1nc(C(F)(F)F)cc1-c1ccc(N(CCCOCCC(=O)NCCCCNC(=O)COc2cccc3c2C(=O)N(C2CCC(=O)NC2=O)C3=O)C(=O)c2ccc(Cl)c(C(F)(F)F)c2)cc1O (centres unmarked) [NUCC-0226230]	1.9	–	–
–	70%	–	Cc1ncsc1-c1ccc(CNC(=O)[C@@H]2C[C@@H](O)CN2C(=O)[C@@H](NCCOCCOc2ccc(COc3ccc(-c4cc(C(F)(F)F)nn4C)c(O)c3-c3ccc(Cl)c(C(F)(F)F)c3)cc2)C(C)(C)C)cc1 [NUCC-0226276]	0.4	–	–
–	102%	–	Cc1ncsc1-c1ccc(CNC(=O)[C@@H]2C[C@@H](O)CN2C(=O)[C@@H](NC(=O)C2(F)CC2)C(C)(C)C)c(OCCOCCOCCCCCOc2ccc(-c3cc(C(F)(F)F)nn3C)c(O)c2-c2ccc(Cl)c(C(F)(F)F)c2)c1 [NUCC-0226264]	1.3	–	–
–	85.9%	–	Cc1ncsc1-c1ccc(CNC(=O)[C@@H]2C[C@@H](O)CN2C(=O)[C@@H](NC(=O)C2(F)CC2)C(C)(C)C)c(OCCOCCOCCOCCOCCCCCOc2ccc(-c3cc(C(F)(F)F)nn3C)c(O)c2-c2ccc(Cl)c(C(F)(F)F)c2)c1 [NUCC-0226221]	–	–	–
–	90.6%	–	Cn1nc(C(F)(F)F)cc1-c1ccc(OCCCCCNC(=O)[C@H](CCCN=C(NC(=O)OC(C)(C)C)NC(=O)OC(C)(C)C)NC(=O)OC(C)(C)C)c(-c2ccc(Cl)c(C(F)(F)F)c2)c1O [NUCC-0226219]	–	–	–
–	–	103%	Cn1nncc1-c1ccc(OCc2ccc(Cl)cc2)c(-c2ccc(Cl)c(C(F)(F)F)c2)c1O [NUCC-0226656]	–	–	1.5 fold change
–	113%	–	CC(=O)Oc1c(-c2cc(C(F)(F)F)nn2C)ccc(OCc2ccc(OCCOCCOS(=O)(=O)c3ccc(C)cc3)cc2)c1-c1ccc(Cl)c(C(F)(F)F)c1 [NUCC-0226263]	0.7	–	–
–	90.1%	–	Cc1ncsc1-c1ccc(CNC(=O)[C@@H]2C[C@@H](O)CN2C(=O)[C@@H](NC(=O)C2(F)CC2)C(C)(C)C)c(OCCOCCOCCOCCCCCOc2ccc(-c3cc(C(F)(F)F)nn3C)c(O)c2-c2ccc(Cl)c(C(F)(F)F)c2)c1 [NUCC-0226220]	–	–	–
–	85.1%	–	Cn1nc(C(F)(F)F)cc1-c1ccc(OCc2ccc(OCCOCCOc3cccc4c3C(=O)N(C3CCC(=O)NC3=O)C4=O)cc2)c(-c2ccc(Cl)c(C(F)(F)F)c2)c1O (centres unmarked) [NUCC-0226279]	2.1	–	–
–	115%	–	Cc1ncsc1-c1ccc(CNC(=O)[C@@H]2C[C@@H](O)CN2C(=O)[C@@H](NCCOCCOCCCCCOc2ccc(-c3cc(C(F)(F)F)nn3C)c(O)c2-c2ccc(Cl)c(C(F)(F)F)c2)C(C)(C)C)cc1 [NUCC-0226265]	2.2	–	–
